We go through 5 molecules from article PMC9814697, “β-Hydroxylation of α-amino-β-hydroxylbutanoyl-glycyluridine catalyzed by a nonheme hydroxylase ensures the maturation of caprazamycin” (Communications Chemistry, 2022).

In one data set the target is T1, Cpz27 (Streptomyces sp. MK730-62F2, UniProt C4NCL4).
T1 construct: pGM1202, Streptomyces lividans TK64, His6-tag kept
Briefly: LC-MS turnover. It counts as biochemical. To be noted: 1 mM, with 500 μM compound 13, 1 mM Mg, pH 8.0, 28 °C.

The target in the next data set is T2, Cpz10 (Streptomyces sp. MK730-62F2, UniProt C4NCJ7).
T2 construct: pET28a, E. coli BL21(DE3), His6-tag kept; homodimer in solution
T2 sequence (C4NCJ7 1-182): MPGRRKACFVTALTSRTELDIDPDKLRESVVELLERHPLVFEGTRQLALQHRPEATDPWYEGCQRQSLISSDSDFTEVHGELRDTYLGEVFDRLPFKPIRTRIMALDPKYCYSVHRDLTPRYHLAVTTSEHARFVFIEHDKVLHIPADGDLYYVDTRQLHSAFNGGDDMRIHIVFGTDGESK
As to the kind of experiment: X-ray crystal structure. The format is binding.

A further data set has as its target T3, Cpz15 (Streptomyces sp. MK730-62F2, UniProt C4NCK2).
T3 construct: pET28a, E. coli BL21(DE3), His6-tag kept
T3 sequence (C4NCK2 1-274): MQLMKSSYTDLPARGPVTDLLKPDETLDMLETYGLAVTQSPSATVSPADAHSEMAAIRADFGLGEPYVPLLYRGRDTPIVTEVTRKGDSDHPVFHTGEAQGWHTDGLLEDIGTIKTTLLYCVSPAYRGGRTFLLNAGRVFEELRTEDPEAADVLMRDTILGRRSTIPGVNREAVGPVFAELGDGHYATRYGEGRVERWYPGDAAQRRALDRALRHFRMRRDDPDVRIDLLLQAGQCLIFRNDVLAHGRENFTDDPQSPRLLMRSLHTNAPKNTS
Briefly: LC-MS turnover. It counts as biochemical. The conditions noted are these: 1 mM UMP, 1.5 mM αKG, ascorbate, FeSO4, pH 8.0, 28 °C; product uridine 5'-aldehyde.

Substrate in data set [1]: CSCC[C@H](N)C(=O)O
Briefly: LC assay, Michaelis-Menten. The format is biochemical, Streptomyces sp. MK730-62F2. To be noted: pseudo-first order condition, αKG, ascorbate, FeSO4, pH 7.5, 28 °C, sulfoxidation to MSO.

T1 sequence (C4NCL4 entry or part of it): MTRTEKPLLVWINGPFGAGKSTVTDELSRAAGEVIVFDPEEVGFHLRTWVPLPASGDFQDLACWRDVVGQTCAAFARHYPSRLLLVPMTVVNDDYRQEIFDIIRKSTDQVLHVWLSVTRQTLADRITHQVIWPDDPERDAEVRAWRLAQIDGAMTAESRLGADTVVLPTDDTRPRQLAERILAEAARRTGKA

For the molecule `Nc1ncnc2c1ncn2[C@@H]1O[C@H](COP(=O)(O)OP(=O)(O)OP(=O)(O)O)[C@@H](O)[C@H]1O` [ATP], on Cpz27, the LC-MS turnover result is given as “at the expense of one molecule of ATP”.

Consider `O=C(O)CCC(=O)O` [succinic acid], for which the X-ray crystal structure result on Cpz10 (formed in crystal from soaked αKG, with compound 12 and Fe1) was “αKG soaked in the crystals has been converted to succinic acid”.

On to `O=C(O)CCC(=O)C(=O)O` [αKG], for which, on Cpz10 (Fe1 present, 1.9 Å, bidentate to Fe1), the X-ray crystal structure entry is on record as “two complexes (with αKG (PDB code: 7V4M)”.

On to `O=c1ccn([C@@H]2O[C@H](COP(=O)(O)O)[C@@H](O)[C@H]2O)c(=O)[nH]1` [UMP], for which the LC-MS turnover result on Cpz15 is “a new peak emerge on the LC trace concomitant with dwindling of UMP”.

B1: Cpz10 (Streptomyces sp. MK730-62F2) (protein)
chain: T2 sequence (C4NCJ7 1-182)
notes: pET28a, E. coli BL21(DE3), His6-tag kept; homodimer in solution
As a reminder, the Km is the substrate concentration at which the rate is half of its maximum. The term kcat denotes the number of substrate molecules converted per active site and unit of time at saturation. For B1, in data set [1], the Km was found to be 892.1 ± 9 µM and the kcat was 0.977 ± 0.013 s⁻¹.
